Our source for the TGI and GI50 values is PubChem BioAssay (NCI).

Test systems include NCI-H460 lung; UO-31 renal; SNB-78 CNS; LXFL 529 NSCLC; UACC-62 melanoma; DLD-1 colon; COLO 205 colon; MDA-MB-435; CAKI-1 renal; EKVX NSCLC; MDA-N; KM20L2 colon; 786-0 renal.
Holding throughout (assay): DTP human tumour cell line panel, 48 h

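Grown in 96-well plates, cells were treated for 48 hours with each compound at five concentrations. Insufficient inhibition: endpoint recorded as highest concentration tested. GI50 is the concentration that inhibits growth by half. TGI marks complete inhibition of growth.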

One may read the TGI as the concentration giving total growth inhibition. Consider `CN(C)c1nc(N(C)C)nc(N(C)CN(C)c2ccc(Cl)cc2)n1`, for which the TGI with NCI-H460 lung, in the test with UO-31 renal, in the test with SNB-78 CNS, in the test on LXFL 529 NSCLC, in the test with UACC-62 melanoma and in the test on DLD-1 colon was more than 100 µM each time.

One may read the GI50 as the concentration giving 50% growth inhibition. Regarding `CN(c1cc2ncc(=O)[nH]c2cc1NC(N)=NCc1ccc(Cl)cc1)C1CCCCC1`, the GI50 in the test with NCI-H460 lung is 7.14 µM; in the test on COLO 205 colon it was 1.11 µM; in the test with MDA-MB-435 it was 6.34 µM; in the test with UO-31 renal, 8.21 µM; in the test with UACC-62 melanoma, 6.8 µM; in the test on CAKI-1 renal, 7.47 µM. Moreover, the GI50 with EKVX NSCLC was 6.65 µM. The concentration for total growth inhibition (TGI) in the test with NCI-H460 lung worked out at 14.5 µM; in the test with COLO 205 colon it was 2.55 µM; in the test on MDA-MB-435, 12.8 µM; in the test on UO-31 renal, 15.8 µM; in the test on UACC-62 melanoma, 14 µM; with CAKI-1 renal, 14.5 µM. The TGI with EKVX NSCLC came to 14.5 µM.

In the case of `COc1ccc2c(c1)CCN=C2Cc1cc(OC)c(OC)cc1CCCl`, the TGI in the test on NCI-H460 lung, in the test on COLO 205 colon, in the test with MDA-MB-435, in the test with UO-31 renal, with UACC-62 melanoma and in the test on CAKI-1 renal was more than 100 µM throughout. For the same molecule, the TGI in the test with MDA-N and with EKVX NSCLC was more than 100 µM each time.

For the molecule `Cc1nc2c(n1C)C(=O)c1nc(CBr)[nH]c(=O)c1C2=O`, the TGI in the test on NCI-H460 lung, in the test on COLO 205 colon, in the test with KM20L2 colon, in the test on UO-31 renal, in the test on LXFL 529 NSCLC and in the test on UACC-62 melanoma was more than 100 µM each time. Also, the TGI in the test with DLD-1 colon was more than 100 µM; with EKVX NSCLC, 54.9 µM.

For the molecule `O=C(O)c1cc(=O)[nH]c(SCc2ccccc2)n1`, the TGI in the test with NCI-H460 lung, in the test on MDA-MB-435, in the test on UO-31 renal, in the test with 786-0 renal, in the test with UACC-62 melanoma and in the test on CAKI-1 renal was more than 100 µM each time. For the same molecule, the TGI in the test with MDA-N and with EKVX NSCLC was more than 100 µM throughout.

Turning to `CC(=O)Oc1c(C)c2c(O)c3c1C1=C(OCOC1=C(C)C3=O)/C(C)=C\C(C)(O)C(O)C(C)C(O)C1C(=O)OC(C(C)C1O)C(C)(O)/C=C/C=C(C)C(=O)N2` (stereo unspecified), the TGI in the test on NCI-H460 lung was more than 100 µM; in the test on COLO 205 colon, more than 100 µM; in the test on MDA-MB-435 it was more than 100 µM; in the test with UO-31 renal, 46.5 µM; in the test on 786-0 renal, more than 100 µM; with UACC-62 melanoma, more than 100 µM. Further, the results for the TGI in the test on CAKI-1 renal, in the test on MDA-N and with EKVX NSCLC were 64.5 µM, more than 100 µM and more than 100 µM, respectively.

Take `O=Cc1cc([N+](=O)[O-])no1`: the TGI with NCI-H460 lung is more than 100 µM; with COLO 205 colon, more than 100 µM; with MDA-MB-435 it was 29.9 µM; in the test on UO-31 renal, more than 100 µM; in the test with UACC-62 melanoma, 46.3 µM; in the test on CAKI-1 renal it was more than 100 µM. For the same molecule, the TGI in the test on MDA-N came out at 52.6 µM.

As for `Cc1ccc(NP(=O)(Oc2ccccc2)N(CCCl)CCCl)cc1` (stereo unspecified), the TGI in the test on COLO 205 colon, in the test on KM20L2 colon, with UO-31 renal, in the test with SNB-78 CNS, with LXFL 529 NSCLC and in the test with UACC-62 melanoma was more than 100 µM throughout. For the same molecule, the TGI in the test with DLD-1 colon, in the test with CAKI-1 renal and in the test on EKVX NSCLC was more than 100 µM in each case.

With `O=C(C=P(c1ccccc1)(c1ccccc1)c1ccccc1)c1cccc(-c2cccc([N+](=O)[O-])c2)c1`, the TGI with NCI-H460 lung is more than 100 µM; in the test on COLO 205 colon, 2.91 µM; in the test with UO-31 renal it was 20.3 µM; with 786-0 renal, more than 100 µM; in the test with CAKI-1 renal it was 6.26 µM; in the test with MDA-N, 6.95 µM. In the test with EKVX NSCLC, the TGI is more than 100 µM.

Regarding `c1ccc(C2CC(c3cccc(Nc4ccncc4)c3)=NN2c2ccccc2)cc1` (stereo unspecified), the GI50 is 1.72 µM with NCI-H460 lung; 1.9 µM in the test on COLO 205 colon; 1.69 µM in the test with MDA-MB-435; 1.48 µM with UO-31 renal; 1.67 µM in the test on UACC-62 melanoma; 1.39 µM in the test with CAKI-1 renal. Besides, the GI50 in the test on EKVX NSCLC was 1.61 µM. The TGI turned out to be 3.25 µM in the test with NCI-H460 lung; 3.86 µM in the test with COLO 205 colon; 3.2 µM in the test on MDA-MB-435; 2.8 µM with UO-31 renal; 3.04 µM in the test with UACC-62 melanoma; 2.74 µM with CAKI-1 renal. In the test on EKVX NSCLC, the concentration for total growth inhibition (TGI) is 3.42 µM.

Regarding `O=S1(=O)C(c2ccccc2)C(N2CCCCC2)C1C1CC2c3ccccc3C1c1ccccc12` (stereo unspecified), the TGI in the test on NCI-H460 lung, with COLO 205 colon, in the test on MDA-MB-435, in the test with UO-31 renal, in the test on 786-0 renal and in the test with UACC-62 melanoma was more than 100 µM in each case. Further, the TGI in the test with CAKI-1 renal, with MDA-N and with EKVX NSCLC was more than 100 µM in each case.

Consider `CSc1nc(NC2OCC(OC(C)=O)C(OC(C)=O)C2OC(C)=O)c(N=C(C)C(C)=O)c(=O)[nH]1` (stereo unspecified), for which the TGI in the test on NCI-H460 lung, in the test with COLO 205 colon, in the test with SNB-78 CNS, in the test with LXFL 529 NSCLC, with DLD-1 colon and with CAKI-1 renal was more than 100 µM throughout. In the test with EKVX NSCLC, the TGI is more than 100 µM.

As to `OC1(c2ccc(Cl)cc2)c2c(ccc3c2OCO3)C2=NCCN21` (stereo unspecified), the TGI in the test on NCI-H460 lung is more than 100 µM; in the test with COLO 205 colon, 33 µM; in the test on MDA-MB-435 it was more than 100 µM; in the test on UO-31 renal, more than 100 µM; with 786-0 renal, more than 100 µM; in the test on UACC-62 melanoma it was 37 µM. Besides, the TGI in the test on CAKI-1 renal is more than 100 µM; in the test on MDA-N, 87.4 µM; in the test with EKVX NSCLC, more than 100 µM.

Consider `CCOC(=O)C[C@@H]1C2(C=C[C@@]13CO3)OCC(C)(C)CO2`, for which the TGI in the test on NCI-H460 lung, in the test with COLO 205 colon, with MDA-MB-435, in the test with UO-31 renal, in the test with UACC-62 melanoma and with CAKI-1 renal was more than 100 µM in each case. For the same molecule, the TGI in the test on MDA-N and in the test with EKVX NSCLC was more than 100 µM in each case.

Turning to `CCN(CC)CCCC(C)Nc1ccnc2cc3ccccc3cc12` (stereo unspecified), the TGI in the test with NCI-H460 lung is 24.4 µM; in the test with COLO 205 colon, 11.7 µM; in the test on MDA-MB-435, 24.2 µM; in the test with UO-31 renal, 53.9 µM; in the test on 786-0 renal it was more than 100 µM; with UACC-62 melanoma it was 49.1 µM. The TGI is 42.2 µM in the test with CAKI-1 renal and more than 100 µM in the test on EKVX NSCLC.

For `CCCCCCCCCCCCCCCc1ccc(OCC(O)CO)cc1` (stereo unspecified), the TGI in the test on NCI-H460 lung is 53.6 µM; in the test with COLO 205 colon it was 59.3 µM; in the test on KM20L2 colon it was 94.4 µM; in the test on UO-31 renal, more than 100 µM; in the test with SNB-78 CNS, 99.3 µM; in the test on LXFL 529 NSCLC it was 68 µM. Moreover, the TGI with UACC-62 melanoma was 48 µM; with DLD-1 colon, more than 100 µM; in the test on CAKI-1 renal, more than 100 µM; with EKVX NSCLC, 78.5 µM.

As to `N#Cc1c(NC(=S)Nc2ccc(Cl)cc2)sc2c1CCCC2`, the TGI in the test with COLO 205 colon, in the test on MDA-MB-435, with UO-31 renal, with UACC-62 melanoma, with CAKI-1 renal and in the test with MDA-N was more than 100 µM throughout. The molecule also registered a TGI with EKVX NSCLC of more than 100 µM.

As for `Nc1cc2c(nnn2C2OC(COCc3ccccc3)C(OCc3ccccc3)C2OCc2ccccc2)c(=O)[nH]1` (stereo unspecified), the TGI with NCI-H460 lung is 92.3 µM; with COLO 205 colon, 20.3 µM; in the test on MDA-MB-435, 40.4 µM; in the test on UO-31 renal, more than 100 µM; in the test on 786-0 renal, more than 100 µM; in the test with UACC-62 melanoma it was 38.1 µM. Further, the TGI in the test with CAKI-1 renal was more than 100 µM; with MDA-N it was 34 µM; in the test with EKVX NSCLC, 46.1 µM.

On to `CC(C)CCC[C@@H](C)[C@H]1CC[C@H]2[C@@H]3CC[C@H]4C[C@H](N)CC[C@]4(C)[C@H]3CC[C@]12C`, for which the TGI in the test on NCI-H460 lung is more than 100 µM; in the test with COLO 205 colon, 56.3 µM; in the test with MDA-MB-435 it was more than 100 µM; in the test with UO-31 renal, 30.3 µM; in the test on 786-0 renal, more than 100 µM; with UACC-62 melanoma it was 43.1 µM. In addition, the TGI with CAKI-1 renal is 59 µM; in the test on MDA-N it was more than 100 µM; with EKVX NSCLC, 43.4 µM.

On to `CS(=O)(=O)OC1CN2CCC1CC2` (stereo unspecified), for which the TGI with NCI-H460 lung, with COLO 205 colon, in the test with MDA-MB-435, in the test on UO-31 renal, with 786-0 renal and in the test with UACC-62 melanoma was more than 100 µM throughout. For the same molecule, the TGI in the test with CAKI-1 renal, in the test with MDA-N and in the test with EKVX NSCLC was more than 100 µM each time.

As for `O=C(C[C@H](NC(=O)OCc1ccccc1)C(=O)NC1Cc2ccccc2OC1=O)OCc1ccccc1` (stereo partly specified), the TGI with NCI-H460 lung, in the test on COLO 205 colon, in the test on MDA-MB-435, in the test on UO-31 renal, with CAKI-1 renal and in the test on MDA-N was more than 100 µM in each case.
